# Reference: patent US10023565B2, “N,N′ substituted piperidinamine compounds, and preparation method and usage thereof” (Institute of Pharmacology and Toxicology Academy of …, priority 2013, dated 2018)
# “And” between values parts separate entries of the source, which are not always exact repeats. Identical values can stand only once. Like-named read-outs stand apart in the source and are kept apart here.
# Experiment: Mice pharmacokinetic evaluation (LC-MS/MS of plasma)
# Type: in vivo, ICR mice
# Settings: for in vivo absorption and elimination: intragastric administration to mice
# Experimental: Mice pharmacokinetic evaluation of the compound of Example 36 according to the method described below
# ICR mice, SPS grade, male, weighed […], license number SCXK (Beijing) 2012-0001, purchased from Beijing Vital River Laboratory Animal Technology Co. Ltd.
# Chromatographic conditions: Analytical column: Capcell Pak MG, 5 μm particle size, 50×2.0 mm I.D. (Shiseido Co.), connected with C18 guard column, 4×3.0 mm I.D. (PhenomenexCo., USA), column temperature 25° C., mobile phase: acetonitrile −2 mM ammonium acetate (65:35, v/v), flow rate 0.3 ml/min, internal standard: loratadine.
# MS conditions: Electrospray ionization source (Turbo Ionspray source), positive ion mode detection; spray voltage 4500 V; source temperature 400° C.; nebulizer gas (NEB) 8; curtain gas (CUR) 10; collision gas (CAD) 4; scanning mode: multiple reaction monitoring (MRM), ion reactions for quantitative analysis: m/z 354.4→m/z 154.1 (Mol, CE 43 V) and m/z 383→m/z 337 (internal standard loratadine, CE 32 V), scanning time 150 msec.
# To 50 μl of plasma, were added 10 μl of internal standard solution (125 ng/ml aqueous solution of loratadine), and 500 μl of n-hexane-dichloromethane-isopropanol (100:50:5, v/v/v); they were uniformly mixed, followed by vortexing for 3 min, and centrifuging for 10 min (3000 rpm); the supernatant was taken and blow dried with air streamat 40° C.; the residue was dissolved with 150 μl […], and subjected to LC-MS/MS analysis.
# 30 ICR male mice were randomly divided into […], five mices each group, including Mol 10 mg/kg oral group and 1.0 mg/kg tail intravenous injection group. For oral group, before administration, the animals were fasted for 12 h, with free access to water; 0.08, 0.25, 0.5, 1, 2, 4, 6, 8, 12 and 24 h after intragastrical administration, 0.1 ml of orbital venous sinus blood was taken, placed in anticoagulation tube containing heparin sodium, and subjected to 3000 g centrifugation for 15 min; and then, the plasma was taken and stored in a −20° C. refrigerator. […]
# Pharmacokinetic parameters were calculated using non-compartment model of Winnonlin® software (Version 5.2.1, USA). Cmax is the measured maximum plasma concentration, Tmax is time to peak plasma concentration after oral administration, t1/2 is drug terminal elimination halflife, MRT is average residence time of drug in vivo, the area AUC0-t under plasma concentration—time curve is calculated by trapezoidal method.
# Bioavailability is calculated as follows: […]
# AUC: Area (h*ng/ml) under the curve; D: dose (mg/kg)
# [1] = IV 1.0 mg/kg, individual mice 4-6, listed as Mol, 1 mg/kg
# [2] = Po 10 mg/kg, individual mice 1-3, listed as Mol, 10 mg/kg
# [3] = male, ICR, mouse, plasma, iv, 1 mg/kg, IV 1.0 mg/kg, Mean ± SD, n = 3
# [4] = male, ICR, mouse, plasma, iv, 1 mg/kg, IV 1.0 mg/kg, individual mice 4-6
structure (smiles),measurement,setting,value
"CSc1nccc(N2CCC(N(C)Cc3ccc(C#N)cc3)CC2)n1 [Example 36, N-methyl-N-(4-cyanobenzyl)-N-[1-(2-methylthiopyrimidin-4-yl)piperidin-4-yl]amine]",Ke,"IV 1.0 mg/kg, Mean ± SD, n = 3",0.97 ± 0.88 h⁻¹
same,AUC0-∞,[1],37.81 ng·h/mL and 58.27 ng·h/mL
same,Cmax,[1],63.90 ng/mL and 71.35 ng/mL
same,Ke,[1],1.98 h⁻¹ and 0.51 h⁻¹ and 0.43 h⁻¹
same,MRT0-t,[1],0.42 h and 1.02 h and 2.40 h
same,MRT0-∞,[1],0.46 h and 1.35 h and 2.71 h
same,Tmax,[1],0.03 h (2×) and 0.08 h
same,t1/2,[1],0.35 h and 1.37 h and 1.62 h
same,F (bioavailability),"Po 10 mg/kg vs IV 1.0 mg/kg, individual mice 1-3, listed as Mol",43.20% and 63.94% and 59.39%
same,Ke,"Po 10 mg/kg, Mean ± SD, n = 3",0.43 ± 0.33 h⁻¹
same,Cmax,"Po 10 mg/kg, Mean ± SD, n = 3, listed as Mol, 10 mg/kg",260.2 ± 63.19 ng/mL
same,AUC0-∞,[2],317.86 ng·h/mL and 305.15 ng·h/mL
same,Cmax,[2],260.48 ng/mL and 323.37 ng/mL
same,Ke,[2],0.40 h⁻¹ and 0.77 h⁻¹ and 0.13 h⁻¹
same,MRT0-t,[2],1.26 h and 0.93 h and 2.56 h
same,MRT0-∞,[2],1.34 h and 0.95 h and 3.57 h
same,Tmax,[2],0.08 h and 1.00 h and 0.25 h
same,t1/2,[2],1.74 h and 0.90 h and 5.53 h
same,in vivo absorption and elimination,10 mg/kg,in vivo absorption and elimination of the compound both are faster
same,in vivo absorption and elimination,"10 mg/kg, listed as Mol",the vivo absorption and elimination after intragastrical administration to mice both were quite fast
same,Plasma concentration of active compound,"intravenous 1.0 mg/kg, 0.03 h, individual mice 4-6, listed as Mol, 1 mg/kg",99.34 ng/mL and 9.23 ng/mL and 71.35 ng/mL
same,Plasma concentration of active compound,"intravenous 1.0 mg/kg, 0.08 h, individual mice 4-6, listed as Mol, 1 mg/kg",63.90 ng/mL and 63.03 ng/mL
same,Plasma concentration of active compound,"intravenous 1.0 mg/kg, 0.17 h, individual mice 4-6, listed as Mol, 1 mg/kg",56.30 ng/mL and 52.58 ng/mL
same,Plasma concentration of active compound,"intravenous 1.0 mg/kg, 0.5 h, individual mice 4-6, listed as Mol, 1 mg/kg",48.72 ng/mL and 24.29 ng/mL and 21.45 ng/mL
same,Plasma concentration of active compound,"intravenous 1.0 mg/kg, 1.0 h, individual mice 4-6, listed as Mol, 1 mg/kg",10.10 ng/mL and 3.94 ng/mL and 7.02 ng/mL
same,Plasma concentration of active compound,"intravenous 1.0 mg/kg, 2.0 h, individual mice 4-6, listed as Mol, 1 mg/kg",2.35 ng/mL and 0.95 ng/mL and 1.99 ng/mL
same,Plasma concentration of active compound,"intravenous 1.0 mg/kg, 4.0 h, individual mice 4-6, listed as Mol, 1 mg/kg",2.23 ng/mL
same,Plasma concentration of active compound,"intravenous 1.0 mg/kg, 8.0 h, individual mice 4-6, listed as Mol, 1 mg/kg",0.98 ng/mL
same,AUC(0-inf),[3],51.2 ± 11.6 ng·h/mL
same,AUC(0-t),[3],49.6 ± 11.4 ng·h/mL
same,half-life,[3],1.11 ± 0.67 h
same,Cmax,"male, ICR, mouse, plasma, iv, 1 mg/kg, IV 1.0 mg/kg, Mean ± SD, n = 3, read-out: Cmax",78.1 ± 18.7 ng/mL
same,MRT last,"male, ICR, mouse, plasma, iv, 1 mg/kg, IV 1.0 mg/kg, Mean ± SD, n = 3, read-out: MRT0-t",1.28 ± 1.01 h
same,MRT inf,"male, ICR, mouse, plasma, iv, 1 mg/kg, IV 1.0 mg/kg, Mean ± SD, n = 3, read-out: MRT0-∞",1.51 ± 1.13 h
same,Tmax,"male, ICR, mouse, plasma, iv, 1 mg/kg, IV 1.0 mg/kg, Mean ± SD, n = 3, read-out: Tmax",0.05 ± 0.03 h
same,AUC(0-inf),[4],57.6 ng·h/mL
same,AUC(0-t),[4],56.4 ng·h/mL
same,Cmax,"male, ICR, mouse, plasma, iv, 1 mg/kg, IV 1.0 mg/kg, individual mice 4-6, read-out: Cmax",99.3 ng/mL
same,concentration at 0.03 h,"male, ICR, mouse, plasma, iv, 1 mg/kg, intravenous 1.0 mg/kg, 0.03 h, Mean, read-out: Plasma concentration of active compound",60 ng/mL
same,concentration at 0.08 h,"male, ICR, mouse, plasma, iv, 1 mg/kg, intravenous 1.0 mg/kg, 0.08 h, Mean, read-out: Plasma concentration of active compound",74.5 ng/mL
same,concentration at 0.08 h,"male, ICR, mouse, plasma, iv, 1 mg/kg, intravenous 1.0 mg/kg, 0.08 h, individual mice 4-6, read-out: Plasma concentration of active compound",96.6 ng/mL
